These results are taken from patent US7928107B2, “Quinazolines useful as modulators of ion channels” (Vertex Pharmaceuticals Incorporated, priority 2004, dated 2011).

As usually defined, the IC50 is the midpoint of a concentration-inhibition curve.

For the experiment, the target named is NaV 1.8 channel (Homo sapiens, UniProt Q9Y5Y9). The experiment can be described thus: Activity against NaV 1.8 channel (optical membrane potential assay). Type of experiment: cell-based. The method in brief:
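Cells expressing the NaV of interest loaded with CC2-DMPE (30 min, room temperature) then DiSBAC2(3) with ABSCl and veratridine; compound incubated 20–30 min. Depolarization triggered by sodium add-back and read on VIPR as 460/580 nm FRET ratio (Rf/Ri), normalized to tetracaine and untreated controls.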

Sequence of NaV 1.8 channel (Q9Y5Y9 whole entry): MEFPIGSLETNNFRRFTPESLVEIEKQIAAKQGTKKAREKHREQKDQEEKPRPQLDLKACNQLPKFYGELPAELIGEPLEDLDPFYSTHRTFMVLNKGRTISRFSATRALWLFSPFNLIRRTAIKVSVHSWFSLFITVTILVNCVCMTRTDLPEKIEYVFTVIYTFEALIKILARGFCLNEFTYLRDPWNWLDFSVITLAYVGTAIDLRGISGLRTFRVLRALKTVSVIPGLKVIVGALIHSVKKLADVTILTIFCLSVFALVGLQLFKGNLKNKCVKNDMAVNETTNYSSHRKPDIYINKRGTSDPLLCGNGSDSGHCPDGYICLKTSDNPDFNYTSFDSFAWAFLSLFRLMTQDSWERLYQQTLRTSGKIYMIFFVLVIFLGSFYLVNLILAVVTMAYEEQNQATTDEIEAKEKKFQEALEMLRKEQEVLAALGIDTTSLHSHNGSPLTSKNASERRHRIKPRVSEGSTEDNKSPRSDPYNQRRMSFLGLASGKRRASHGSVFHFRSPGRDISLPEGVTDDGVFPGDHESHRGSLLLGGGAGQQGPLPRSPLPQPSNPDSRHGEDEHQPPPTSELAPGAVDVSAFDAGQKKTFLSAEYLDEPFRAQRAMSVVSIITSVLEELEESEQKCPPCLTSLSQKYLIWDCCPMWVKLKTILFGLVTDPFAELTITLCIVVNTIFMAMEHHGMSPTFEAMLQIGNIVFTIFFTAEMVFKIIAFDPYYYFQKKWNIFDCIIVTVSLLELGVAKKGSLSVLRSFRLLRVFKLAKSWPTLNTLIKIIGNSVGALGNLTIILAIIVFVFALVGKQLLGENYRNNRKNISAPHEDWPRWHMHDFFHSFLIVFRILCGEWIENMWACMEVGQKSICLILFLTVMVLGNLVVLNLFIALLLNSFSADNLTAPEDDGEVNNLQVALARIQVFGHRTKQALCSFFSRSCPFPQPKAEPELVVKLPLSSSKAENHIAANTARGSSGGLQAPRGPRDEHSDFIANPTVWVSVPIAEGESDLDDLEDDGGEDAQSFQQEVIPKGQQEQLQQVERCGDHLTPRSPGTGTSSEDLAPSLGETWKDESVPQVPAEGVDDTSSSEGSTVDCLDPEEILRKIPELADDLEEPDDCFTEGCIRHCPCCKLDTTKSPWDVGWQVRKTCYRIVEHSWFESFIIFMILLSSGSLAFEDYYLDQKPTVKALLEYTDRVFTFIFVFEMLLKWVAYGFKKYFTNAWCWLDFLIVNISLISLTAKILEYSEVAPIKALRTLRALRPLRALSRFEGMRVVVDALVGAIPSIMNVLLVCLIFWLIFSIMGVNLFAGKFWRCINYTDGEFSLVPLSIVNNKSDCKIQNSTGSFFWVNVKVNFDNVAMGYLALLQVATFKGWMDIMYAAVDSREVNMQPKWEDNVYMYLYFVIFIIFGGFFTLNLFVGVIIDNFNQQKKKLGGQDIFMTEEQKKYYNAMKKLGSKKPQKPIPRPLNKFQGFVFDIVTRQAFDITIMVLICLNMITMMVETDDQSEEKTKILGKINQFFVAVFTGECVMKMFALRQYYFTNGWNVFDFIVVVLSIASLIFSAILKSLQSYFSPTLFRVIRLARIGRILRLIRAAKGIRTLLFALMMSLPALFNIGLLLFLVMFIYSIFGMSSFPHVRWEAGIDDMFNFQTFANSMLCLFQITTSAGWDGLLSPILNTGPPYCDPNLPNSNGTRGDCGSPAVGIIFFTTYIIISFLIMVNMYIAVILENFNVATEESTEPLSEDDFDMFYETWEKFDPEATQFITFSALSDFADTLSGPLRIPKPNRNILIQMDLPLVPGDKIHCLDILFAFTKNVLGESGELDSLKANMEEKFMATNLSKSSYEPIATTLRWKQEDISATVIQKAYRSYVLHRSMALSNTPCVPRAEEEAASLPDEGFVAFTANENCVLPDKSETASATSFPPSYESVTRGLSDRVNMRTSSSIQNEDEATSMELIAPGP

In the case of `Cc1ccc2c(N3CC[C@@H](NC(=O)CC4CCOCC4)C3)nc(-c3ccccc3O)nc2c1` [Example 317, 2-(Tetrahydro-2H-pyran-4-yl)-N—((R)-1-(2-(2-hydroxyphenyl)-7-methylquinazolin-4-yl)pyrrolidin-3-yl)acetamide], the IC50 was in the range of 2 to 10 µM. For `Cc1ccc2c(N3CC[C@@H](NC(=O)CCc4ccccn4)C3)nc(-c3ccccc3O)nc2c1` [Example 318, N—((R)-1-(2-(2-Hydroxyphenyl)-7-methylquinazolin-4-yl)pyrrolidin-3-yl)-3-(pyridin-2-yl)propanamide] the value was above 10 µM; for `Cc1ccc2c(N3CC[C@@H](NC(=O)OCc4cccnc4)C3)nc(-c3ccccc3O)nc2c1` [Example 319, (Pyridin-3-yl)methyl (R)-1-(2-(2-hydroxyphenyl)-7-methylquinazolin-4-yl)pyrrolidin-3-ylcarbamate], 2 to 10 µM.

Consider `Cc1ccc2c(N3CC[C@@H](NC(=O)OCc4ccncc4)C3)nc(-c3ccccc3O)nc2c1` [Example 320, (Pyridin-4-yl)methyl (R)-1-(2-(2-hydroxyphenyl)-7-methylquinazolin-4-yl)pyrrolidin-3-ylcarbamate], for which the IC50 was 2 to 10 µM. For `Cc1ccc2c(N3CC[C@@H](NC(=O)OCc4cccc5c4OCO5)C3)nc(-c3ccccc3O)nc2c1` [Example 321, (Benzo[d][1,3]dioxol-7-yl)methyl (R)-1-(2-(2-hydroxyphenyl)-7-methylquinazolin-4-yl)pyrrolidin-3-ylcarbamate] the value was above 10 µM. `Cc1ccc2c(N3CC[C@@H](NC(=O)CCc4cccnc4)C3)nc(-c3ccccc3O)nc2c1` [Example 322, N—((R)-1-(2-(2-Hydroxyphenyl)-7-methylquinazolin-4-yl)pyrrolidin-3-yl)-3-(pyridin-3-yl)propanamide]: the IC50 is above 10 µM.

Turning to `Cc1ccc2c(N3CC[C@@H](NC(=O)CCC4CCCC4)C3)nc(-c3ccccc3O)nc2c1` [Example 323, (R)-3-Cyclopentyl-N-{1-[2-(2-hydroxy-phenyl)-7-methyl-quinazolin-4-yl]-pyrrolidin-3-yl}-propionamide], the IC50 is above 10 µM. For `Cc1ccc2c(N3CC[C@@H](NC(=O)CCN4CCCCC4)C3)nc(-c3ccccc3O)nc2c1` [Example 324], the IC50 is above 10 µM. For `Cc1ccc2c(N3CC[C@@H](NC(=O)c4cccc(OC(F)(F)F)c4)C3)nc(-c3ccccc3O)nc2c1` [Example 325, N—((R)-1-(2-(2-Hydroxyphenyl)-7-methylquinazolin-4-yl)pyrrolidin-3-yl)-3-(trifluoromethoxy)benzamide] the value was above 10 µM. Under `COc1cccc(C(=O)N[C@@H]2CCN(c3nc(-c4ccccc4O)nc4cc(C)ccc34)C2)c1` [Example 326, N—((R)-1-(2-(2-Hydroxyphenyl)-7-methylquinazolin-4-yl)pyrrolidin-3-yl)-3-methoxybenzamide] stands above 10 µM; under `Cc1ccc2c(N3CC[C@@H](NC(=O)c4cccc(C#N)c4)C3)nc(-c3ccccc3O)nc2c1` [Example 327, 3-Cyano-N—((R)-1-(2-(2-hydroxyphenyl)-7-methylquinazolin-4-yl)pyrrolidin-3-yl)benzamide], above 10 µM; under `Cc1ccc2c(N3CC[C@@H](NC(=O)c4cccnc4)C3)nc(-c3ccccc3O)nc2c1` [Example 328, N—((R)-1-(2-(2-Hydroxyphenyl)-7-methylquinazolin-4-yl)pyrrolidin-3-yl)nicotinamide], above 10 µM. Under `O=C(N[C@@H]1CCN(c2nc(-c3ccccc3O)nc3ccc(F)cc23)C1)C1CC1` [Example 329, N—((R)-1-(6-Fluoro-2-(2-hydroxyphenyl)quinazolin-4-yl)pyrrolidin-3-yl)cyclopropanecarboxamide] stands 2 to 10 µM. With `O=C(N[C@@H]1CCN(c2nc(-c3ccccc3O)nc3ccc(F)cc23)C1)O[C@H]1CCOC1` [Example 335, (S)-Tetrahydrofuran-3-yl (R)-1-(6-fluoro-2-(2-hydroxyphenyl)quinazolin-4-yl)pyrrolidin-3-ylcarbamate], the IC50 lay within 2 to 10 µM.

Turning to `O=C(N[C@@H]1CCN(c2nc(-c3ccccc3O)nc3ccc(F)cc23)C1)O[C@@H]1CCOC1` [Example 337, (R)-Tetrahydrofuran-3-yl (R)-1-(6-fluoro-2-(2-hydroxyphenyl)quinazolin-4-yl)pyrrolidin-3-ylcarbamate], the IC50 was in the range of 2 to 10 µM.

With `O=C(CC1CCOCC1)N[C@@H]1CCN(c2nc(-c3ccccc3O)nc3ccc(F)cc23)C1` [Example 338, N—((R)-1-(6-Fluoro-2-(2-hydroxyphenyl)quinazolin-4-yl)pyrrolidin-3-yl)-2-(tetrahydro-2H-pyran-4-yl)acetamide], the IC50 is above 10 µM. On to `O=C(N[C@@H]1CCN(c2nc(-c3ccccc3O)nc3ccc(F)cc23)C1)OCC1CCCCO1` (stereo partly drawn) [Example 339, (Tetrahydro-2H-pyran-2-yl)methyl (R)-1-(6-fluoro-2-(2-hydroxyphenyl)quinazolin-4-yl)pyrrolidin-3-ylcarbamate], for which the IC50 was in the range of 2 to 10 µM.

As for `Cc1ccc2c(N3CC[C@@H](NC(=O)C4C(C)(C)C4(C)C)C3)nc(-c3ccccc3O)nc2c1` [Example 340, N—((R)-1-(2-(2-Hydroxyphenyl)-7-methylquinazolin-4-yl)pyrrolidin-3-yl)-2,2,3,3-tetramethylcyclopropanecarboxamide], the IC50 was below 2 µM. For `Cc1ccc2c(N3CC[C@@H](NC(=O)c4cccc(N(C)C)c4)C3)nc(-c3ccccc3O)nc2c1` [Example 342, 3-(Dimethylamino)-N—((R)-1-(2-(2-hydroxyphenyl)-7-methylquinazolin-4-yl)pyrrolidin-3-yl)benzamide] the value was above 10 µM; for `Cc1ccc2c(N3CC[C@@H](NC(=O)O[C@H]4CCOC4)C3)nc(-c3c(O)cccc3F)nc2c1` [Example 345, (S)-Tetrahydrofuran-3-yl (R)-1-(2-(2-fluoro-6-hydroxyphenyl)-7-methylquinazolin-4-yl)pyrrolidin-3-ylcarbamate], 2 to 10 µM. Under `Cc1ccc2c(N3CC[C@@H](NC(=O)C4CC4)C3)nc(-c3c(O)cccc3F)nc2c1` [Example 346, N—((R)-1-(2-(2-Fluoro-6-hydroxyphenyl)-7-methylquinazolin-4-yl)pyrrolidin-3-yl)cyclopropanecarboxamide] stands 2 to 10 µM; under `O=C(N[C@@H]1CCN(c2nc(-c3ccccc3O)nc3ccc(F)cc23)C1)c1ccncc1` [Example 347, N—((R)-1-(6-Fluoro-2-(2-hydroxyphenyl)quinazolin-4-yl)pyrrolidin-3-yl)isonicotinamide], above 10 µM; under `O=C(N[C@@H]1CCN(c2nc(-c3ccccc3O)nc3ccc(F)cc23)C1)c1ccccn1` [Example 348, N—((R)-1-(6-Fluoro-2-(2-hydroxyphenyl)quinazolin-4-yl)pyrrolidin-3-yl)picolinamide], above 10 µM. Take `O=C(N[C@@H]1CCN(c2nc(-c3ccccc3O)nc3ccc(F)cc23)C1)c1cccnc1` [Example 349, N—((R)-1-(6-Fluoro-2-(2-hydroxyphenyl)quinazolin-4-yl)pyrrolidin-3-yl)nicotinamide]: the half-inhibitory concentration (IC50) was above 10 µM. As to `Cc1ccc2c(N3CC[C@@H](NC(=O)c4ccncc4)C3)nc(-c3c(O)cccc3F)nc2c1` [Example 350, N—((R)-1-(2-(2-Fluoro-6-hydroxyphenyl)-7-methylquinazolin-4-yl)pyrrolidin-3-yl)isonicotinamide], the IC50 was above 10 µM. Consider `Cc1ccc2c(N3CC[C@@H](NC(=O)c4ccccn4)C3)nc(-c3c(O)cccc3F)nc2c1` [Example 351, N—((R)-1-(2-(2-Fluoro-6-hydroxyphenyl)-7-methylquinazolin-4-yl)pyrrolidin-3-yl)picolinamide], for which the IC50 was 2 to 10 µM. Under `Cc1ccc2c(N3CC[C@@H](NC(=O)c4cccnc4)C3)nc(-c3c(O)cccc3F)nc2c1` [Example 352, N—((R)-1-(2-(2-Fluoro-6-hydroxyphenyl)-7-methylquinazolin-4-yl)pyrrolidin-3-yl)nicotinamide] stands above 10 µM; under `Cc1ccc2c(N3CC[C@@H](NC(=O)c4ccncc4)C3)nc(-c3ccccc3O)nc2c1` [Example 353, N—((R)-1-(2-(2-Hydroxyphenyl)-7-methylquinazolin-4-yl)pyrrolidin-3-yl)isonicotinamide], above 10 µM. Take `Cc1ccc2c(N3CC[C@@H](NC(=O)c4ccccn4)C3)nc(-c3ccccc3O)nc2c1` [Example 354, N—((R)-1-(2-(2-Hydroxyphenyl)-7-methylquinazolin-4-yl)pyrrolidin-3-yl)picolinamide]: the IC50 lay within 2 to 10 µM. For `O=C(NC[C@@H]1CCN(c2nc(-c3ccccc3O)nc3ccc(F)cc23)C1)O[C@@H]1CCOC1` [Example 355, (R)-Tetrahydrofuran-3-yl ((S)-1-(6-fluoro-2-(2-hydroxyphenyl)quinazolin-4-yl)pyrrolidin-3-yl)methylcarbamate] the value was above 10 µM; for `O=C(NC[C@@H]1CCN(c2nc(-c3ccccc3O)nc3ccc(F)cc23)C1)O[C@H]1CCOC1` [Example 356, (S)-Tetrahydrofuran-3-yl ((S)-1-(6-fluoro-2-(2-hydroxyphenyl)quinazolin-4-yl)pyrrolidin-3-yl)methylcarbamate], above 10 µM. As to `O=C(NC[C@@H]1CCN(c2nc(-c3ccccc3O)nc3ccc(F)cc23)C1)C1CC1` [Example 357, N—(((S)-1-(6-Fluoro-2-(2-hydroxyphenyl)quinazolin-4-yl)pyrrolidin-3-yl)methyl)cyclopropanecarboxamide], the IC50 is above 10 µM. Under `O=C(N[C@@H]1CCN(c2nc(-c3ccccc3O)nc3ccc(F)cc23)C1)C(O)c1ccc(F)cc1` (stereo partly drawn) [Example 358, N—((R)-1-(6-Fluoro-2-(2-hydroxyphenyl)quinazolin-4-yl)pyrrolidin-3-yl)-2-(4-fluorophenyl)-2-hydroxyacetamide] stands above 10 µM; under `Cc1ccc2c(N3CC[C@@H](NC(=O)C(O)c4ccc(F)cc4)C3)nc(-c3c(O)cccc3F)nc2c1` (stereo partly drawn) [Example 359, N—((R)-1-(2-(2-Fluoro-6-hydroxyphenyl)-7-methylquinazolin-4-yl)pyrrolidin-3-yl)-2-(4-fluorophenyl)-2-hydroxyacetamide], above 10 µM.
